Assay results taken from patent publication US10835533B2, “1 -((3S,4R)-4-(3-fluorophenyl)-1-(2-methoxyethyl)pyrrolidin-3-yl)-3-(4-methyl-3-(2-methylpyrimidin-5-yl)-1-phenyl-1H-pyrazol-5-yl)urea as a TrkA kinase inhibitor” (Array BioPharma Inc., priority 2014, dated 2020).

Key:
Experiment in all cases: KinaseProfiler kinase profiling
Type in all cases: biochemical
Conditions in all cases: 10 μM, ATP near Km
ALK4 = biological target: T1, ALK4 (Homo sapiens, UniProt P36896)
T1 construct: purchased Millipore, Inc. (KinaseProfiler service)
Experimental: (§1) Compound 1 was tested for off-target kinase activity at a concentration of 10 μM by Millipore, Inc. in their KinaseProfiler™ service against all the kinases available in their full kinase panel. Compound 1 was run in duplicate at a concentration of ATP near the Km for each individual kinase according to Millipore's specifications. Data are reported as percent of control (POC) and are the average of the two replicates.

Abl-P = biological target: T2, Abl-P (Homo sapiens, UniProt P00519)
T2 construct: purchased Millipore, Inc. (KinaseProfiler service)
Experimental: as §1

CAMK4 = biological target: T3, CAMK4 (Homo sapiens, UniProt Q16566)
T3 construct: purchased Millipore, Inc. (KinaseProfiler service)
T3 sequence (Q16566 whole entry): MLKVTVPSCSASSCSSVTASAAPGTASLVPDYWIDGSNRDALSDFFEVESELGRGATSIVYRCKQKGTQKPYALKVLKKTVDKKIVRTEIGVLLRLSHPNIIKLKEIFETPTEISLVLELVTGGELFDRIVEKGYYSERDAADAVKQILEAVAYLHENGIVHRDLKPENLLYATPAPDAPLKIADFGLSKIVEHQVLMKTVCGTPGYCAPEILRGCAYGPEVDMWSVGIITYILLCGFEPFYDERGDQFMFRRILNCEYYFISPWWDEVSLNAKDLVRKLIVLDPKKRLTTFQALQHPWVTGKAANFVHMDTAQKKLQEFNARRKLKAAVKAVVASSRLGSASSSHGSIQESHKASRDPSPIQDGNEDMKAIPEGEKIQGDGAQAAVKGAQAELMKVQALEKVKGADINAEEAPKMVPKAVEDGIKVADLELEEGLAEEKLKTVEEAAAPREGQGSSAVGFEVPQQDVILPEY
Experimental: as §1

CDK1/cyclinB = biological target: T4, CDK1/cyclinB (Homo sapiens, UniProt P06493)
T4 construct: purchased Millipore, Inc. (KinaseProfiler service)
Experimental: as §1

CHK2 = biological target: T5, CHK2 (Homo sapiens, UniProt O96017)
T5 construct: purchased Millipore, Inc. (KinaseProfiler service)
T5 sequence (O96017 whole entry): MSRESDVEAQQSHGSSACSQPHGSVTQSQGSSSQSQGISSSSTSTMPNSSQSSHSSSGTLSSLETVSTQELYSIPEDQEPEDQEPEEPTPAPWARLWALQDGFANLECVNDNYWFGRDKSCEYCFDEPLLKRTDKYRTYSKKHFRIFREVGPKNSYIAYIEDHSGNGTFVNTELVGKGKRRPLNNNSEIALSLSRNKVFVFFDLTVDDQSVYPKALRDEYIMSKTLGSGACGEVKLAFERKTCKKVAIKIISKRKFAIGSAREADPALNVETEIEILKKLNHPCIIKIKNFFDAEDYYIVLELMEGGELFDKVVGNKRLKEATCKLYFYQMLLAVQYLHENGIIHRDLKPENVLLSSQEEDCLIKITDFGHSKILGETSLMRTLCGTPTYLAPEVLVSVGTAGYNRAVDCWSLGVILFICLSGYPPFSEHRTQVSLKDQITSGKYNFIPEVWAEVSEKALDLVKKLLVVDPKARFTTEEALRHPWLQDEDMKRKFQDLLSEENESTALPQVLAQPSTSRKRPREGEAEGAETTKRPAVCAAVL
Experimental: as §1

CK1delta = biological target: T6, CK1delta (Homo sapiens, UniProt P48730)
T6 construct: purchased Millipore, Inc. (KinaseProfiler service)
Experimental: as §1

CK1gamma2 = biological target: T7, CK1gamma2 (Homo sapiens, UniProt P78368)
T7 construct: purchased Millipore, Inc. (KinaseProfiler service)
Experimental: as §1

DAPK1 = biological target: T8, DAPK1 (Homo sapiens, UniProt P53355)
T8 construct: purchased Millipore, Inc. (KinaseProfiler service)
Experimental: as §1

DAPK2 = biological target: T9, DAPK2 (Homo sapiens, UniProt Q9UIK4)
T9 construct: purchased Millipore, Inc. (KinaseProfiler service)
Experimental: as §1

DRAK1 = biological target: T10, DRAK1 (Homo sapiens, UniProt Q9UEE5)
T10 construct: purchased Millipore, Inc. (KinaseProfiler service)
Experimental: as §1

EGFR = biological target: T11, EGFR (Homo sapiens, UniProt P00533)
T11 construct: purchased Millipore, Inc. (KinaseProfiler service)
Experimental: as §1

FGFR1 = biological target: T12, FGFR1 (Homo sapiens, UniProt P11362)
T12 construct: purchased Millipore, Inc. (KinaseProfiler service)
Experimental: as §1

FGFR2 = biological target: T13, FGFR2 (Homo sapiens, UniProt P21802)
T13 construct: purchased Millipore, Inc. (KinaseProfiler service)
Experimental: as §1

Fms = biological target: T14, Fms (Homo sapiens, UniProt P07333)
T14 construct: purchased Millipore, Inc. (KinaseProfiler service)
T14 sequence (P07333 20-972): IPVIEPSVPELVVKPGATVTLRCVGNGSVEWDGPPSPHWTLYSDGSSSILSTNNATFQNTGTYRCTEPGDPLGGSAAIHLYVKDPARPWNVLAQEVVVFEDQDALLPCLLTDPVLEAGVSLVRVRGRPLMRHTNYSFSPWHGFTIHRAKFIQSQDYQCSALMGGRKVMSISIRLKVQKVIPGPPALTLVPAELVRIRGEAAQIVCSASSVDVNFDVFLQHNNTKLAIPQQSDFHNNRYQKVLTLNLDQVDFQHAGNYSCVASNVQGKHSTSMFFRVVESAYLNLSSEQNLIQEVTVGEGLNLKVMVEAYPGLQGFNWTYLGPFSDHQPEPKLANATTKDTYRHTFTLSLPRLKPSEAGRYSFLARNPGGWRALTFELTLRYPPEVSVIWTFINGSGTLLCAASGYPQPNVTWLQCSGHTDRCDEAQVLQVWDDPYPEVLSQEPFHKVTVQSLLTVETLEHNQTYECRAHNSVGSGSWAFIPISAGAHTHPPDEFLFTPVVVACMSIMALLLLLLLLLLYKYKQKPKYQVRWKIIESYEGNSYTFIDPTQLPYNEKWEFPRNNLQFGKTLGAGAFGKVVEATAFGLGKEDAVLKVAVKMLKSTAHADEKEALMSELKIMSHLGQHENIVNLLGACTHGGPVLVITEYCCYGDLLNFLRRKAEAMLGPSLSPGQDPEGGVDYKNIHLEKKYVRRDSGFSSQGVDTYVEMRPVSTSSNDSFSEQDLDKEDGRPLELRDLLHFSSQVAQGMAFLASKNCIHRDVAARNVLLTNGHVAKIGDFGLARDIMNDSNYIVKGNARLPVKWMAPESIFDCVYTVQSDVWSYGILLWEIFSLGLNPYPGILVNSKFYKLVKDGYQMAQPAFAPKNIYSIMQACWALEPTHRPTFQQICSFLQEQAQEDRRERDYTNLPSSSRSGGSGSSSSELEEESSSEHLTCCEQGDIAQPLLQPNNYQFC
Experimental: as §1

Fyn = biological target: T15, Fyn (Homo sapiens, UniProt P06241)
T15 construct: purchased Millipore, Inc. (KinaseProfiler service)
Experimental: as §1

GSK3alpha = biological target: T16, GSK3alpha (Homo sapiens, UniProt P49840)
T16 construct: purchased Millipore, Inc. (KinaseProfiler service)
Experimental: as §1

HIPK3 = biological target: T17, HIPK3 (Homo sapiens, UniProt Q9H422)
T17 construct: purchased Millipore, Inc. (KinaseProfiler service)
Experimental: as §1

IGF-1R = biological target: T18, IGF-1R (Homo sapiens, UniProt P08069)
T18 construct: purchased Millipore, Inc. (KinaseProfiler service)
Experimental: as §1

JNK2alpha2 = biological target: T19, JNK2alpha2 (Homo sapiens, UniProt P45984)
T19 construct: purchased Millipore, Inc. (KinaseProfiler service)
Experimental: as §1

KIT = biological target: T20, KIT (Homo sapiens, UniProt P10721)
T20 construct: purchased Millipore, Inc. (KinaseProfiler service)
T20 sequence (P10721 26-976): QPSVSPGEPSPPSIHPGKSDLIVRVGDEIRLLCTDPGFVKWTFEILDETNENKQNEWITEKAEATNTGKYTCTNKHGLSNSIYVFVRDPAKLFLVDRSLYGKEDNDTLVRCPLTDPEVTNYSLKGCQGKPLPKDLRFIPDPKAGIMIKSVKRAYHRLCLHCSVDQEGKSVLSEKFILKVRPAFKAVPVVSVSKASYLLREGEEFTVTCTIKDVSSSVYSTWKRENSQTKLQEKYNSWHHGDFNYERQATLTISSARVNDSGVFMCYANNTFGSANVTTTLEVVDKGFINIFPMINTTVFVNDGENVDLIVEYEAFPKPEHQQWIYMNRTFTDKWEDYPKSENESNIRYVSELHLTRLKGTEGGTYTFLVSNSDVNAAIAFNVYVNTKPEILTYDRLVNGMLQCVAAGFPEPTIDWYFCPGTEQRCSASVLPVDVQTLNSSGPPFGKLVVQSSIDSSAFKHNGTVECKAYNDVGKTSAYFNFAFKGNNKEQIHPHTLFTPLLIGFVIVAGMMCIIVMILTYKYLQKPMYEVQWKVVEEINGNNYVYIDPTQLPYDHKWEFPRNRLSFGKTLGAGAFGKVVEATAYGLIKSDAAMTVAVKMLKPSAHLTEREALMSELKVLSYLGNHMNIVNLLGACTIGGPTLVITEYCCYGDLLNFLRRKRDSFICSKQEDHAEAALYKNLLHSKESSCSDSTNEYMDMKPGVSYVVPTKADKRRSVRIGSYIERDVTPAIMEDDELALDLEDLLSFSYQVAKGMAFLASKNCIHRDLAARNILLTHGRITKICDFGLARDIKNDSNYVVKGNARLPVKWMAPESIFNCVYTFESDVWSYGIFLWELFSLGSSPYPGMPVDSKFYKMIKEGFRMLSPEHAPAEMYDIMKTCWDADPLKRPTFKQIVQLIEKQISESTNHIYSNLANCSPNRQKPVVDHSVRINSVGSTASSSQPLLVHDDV
Experimental: as §1

LKB1 = biological target: T21, LKB1 (Homo sapiens, UniProt Q15831)
T21 construct: purchased Millipore, Inc. (KinaseProfiler service)
Experimental: as §1

MAPKAP-K2 = biological target: T22, MAPKAP-K2 (Homo sapiens, UniProt P49137)
T22 construct: purchased Millipore, Inc. (KinaseProfiler service)
Experimental: as §1

MARK2 = biological target: T23, MARK2 (Homo sapiens, UniProt Q7KZI7)
T23 construct: purchased Millipore, Inc. (KinaseProfiler service)
Experimental: as §1

MEK1 = biological target: T24, MEK1 (Homo sapiens, UniProt Q02750)
T24 construct: purchased Millipore, Inc. (KinaseProfiler service)
T24 sequence (Q02750 whole entry): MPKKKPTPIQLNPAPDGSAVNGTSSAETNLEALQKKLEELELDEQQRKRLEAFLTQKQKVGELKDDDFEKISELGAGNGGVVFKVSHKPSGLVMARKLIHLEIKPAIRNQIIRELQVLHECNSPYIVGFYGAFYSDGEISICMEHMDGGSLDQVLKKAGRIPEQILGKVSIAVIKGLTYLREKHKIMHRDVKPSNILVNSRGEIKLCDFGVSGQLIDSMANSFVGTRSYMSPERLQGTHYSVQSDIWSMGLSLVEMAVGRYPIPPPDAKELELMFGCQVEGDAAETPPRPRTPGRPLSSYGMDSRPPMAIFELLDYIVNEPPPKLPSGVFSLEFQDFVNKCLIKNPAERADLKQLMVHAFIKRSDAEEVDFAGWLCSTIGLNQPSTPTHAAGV
Experimental: as §1

MKK4_m = biological target: T25, MKK4_m (Mus musculus, UniProt P47809)
T25 construct: purchased Millipore, Inc. (KinaseProfiler service)
Experimental: as §1

MRCKbeta = biological target: T26, MRCKbeta (Homo sapiens, UniProt Q9Y5S2)
T26 construct: purchased Millipore, Inc. (KinaseProfiler service)
Experimental: as §1

MSK1 = biological target: T27, MSK1 (Homo sapiens, UniProt O75582)
T27 construct: purchased Millipore, Inc. (KinaseProfiler service)
T27 sequence (O75582 whole entry): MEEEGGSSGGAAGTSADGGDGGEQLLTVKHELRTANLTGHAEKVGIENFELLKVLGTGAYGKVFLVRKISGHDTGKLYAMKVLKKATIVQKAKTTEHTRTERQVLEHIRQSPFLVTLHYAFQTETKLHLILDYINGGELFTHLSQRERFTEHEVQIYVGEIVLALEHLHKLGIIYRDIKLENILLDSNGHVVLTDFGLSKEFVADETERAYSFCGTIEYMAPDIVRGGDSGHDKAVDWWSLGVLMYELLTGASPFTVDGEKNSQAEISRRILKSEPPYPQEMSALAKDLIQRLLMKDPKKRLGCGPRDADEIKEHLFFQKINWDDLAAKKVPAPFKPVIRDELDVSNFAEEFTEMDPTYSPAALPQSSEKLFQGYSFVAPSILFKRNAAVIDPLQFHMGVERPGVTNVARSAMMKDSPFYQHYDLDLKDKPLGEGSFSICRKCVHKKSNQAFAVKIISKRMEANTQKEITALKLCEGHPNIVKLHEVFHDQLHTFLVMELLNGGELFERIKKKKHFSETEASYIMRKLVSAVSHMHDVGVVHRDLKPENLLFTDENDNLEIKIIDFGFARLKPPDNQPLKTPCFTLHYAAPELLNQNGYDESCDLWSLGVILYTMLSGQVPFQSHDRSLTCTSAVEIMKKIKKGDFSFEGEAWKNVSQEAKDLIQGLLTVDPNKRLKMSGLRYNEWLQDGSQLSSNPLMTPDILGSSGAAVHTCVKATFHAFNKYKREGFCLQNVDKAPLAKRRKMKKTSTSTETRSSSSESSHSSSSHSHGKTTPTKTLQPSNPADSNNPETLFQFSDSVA
Experimental: as §1

PAK5 = biological target: T28, PAK5 (Homo sapiens, UniProt Q9P286)
T28 construct: purchased Millipore, Inc. (KinaseProfiler service)
Experimental: as §1

PDGFRalpha = biological target: T29, PDGFRalpha (Homo sapiens, UniProt P16234)
T29 construct: purchased Millipore, Inc. (KinaseProfiler service)
Experimental: as §1

PDK1 = biological target: T30, PDK1 (Homo sapiens, UniProt O15530)
T30 construct: purchased Millipore, Inc. (KinaseProfiler service)
Experimental: as §1

PKCdelta = biological target: T31, PKCdelta (Homo sapiens, UniProt Q05655)
T31 construct: purchased Millipore, Inc. (KinaseProfiler service)
Experimental: as §1

PKD2 = biological target: T32, PKD2 (Homo sapiens, UniProt Q9BZL6)
T32 construct: purchased Millipore, Inc. (KinaseProfiler service)
Experimental: as §1

PTK5 = biological target: T33, PTK5 (Homo sapiens, UniProt P42685)
T33 construct: purchased Millipore, Inc. (KinaseProfiler service)
Experimental: as §1

Plk3 = biological target: T34, Plk3 (Homo sapiens, UniProt Q9H4B4)
T34 construct: purchased Millipore, Inc. (KinaseProfiler service)
Experimental: as §1

Ron = biological target: T35, Ron (Homo sapiens, UniProt Q04912)
T35 construct: purchased Millipore, Inc. (KinaseProfiler service)
Experimental: as §1

SGK3 = biological target: T36, SGK3 (Homo sapiens, UniProt Q96BR1)
T36 construct: purchased Millipore, Inc. (KinaseProfiler service)
Experimental: as §1

STK33 = biological target: T37, STK33 (Homo sapiens, UniProt Q9BYT3)
T37 construct: purchased Millipore, Inc. (KinaseProfiler service)
Experimental: as §1

TAO1 = biological target: T38, TAO1 (Homo sapiens, UniProt Q7L7X3)
T38 construct: purchased Millipore, Inc. (KinaseProfiler service)
Experimental: as §1

Txk = biological target: T39, Txk (Homo sapiens, UniProt P42681)
T39 construct: purchased Millipore, Inc. (KinaseProfiler service)
T39 sequence (P42681 whole entry): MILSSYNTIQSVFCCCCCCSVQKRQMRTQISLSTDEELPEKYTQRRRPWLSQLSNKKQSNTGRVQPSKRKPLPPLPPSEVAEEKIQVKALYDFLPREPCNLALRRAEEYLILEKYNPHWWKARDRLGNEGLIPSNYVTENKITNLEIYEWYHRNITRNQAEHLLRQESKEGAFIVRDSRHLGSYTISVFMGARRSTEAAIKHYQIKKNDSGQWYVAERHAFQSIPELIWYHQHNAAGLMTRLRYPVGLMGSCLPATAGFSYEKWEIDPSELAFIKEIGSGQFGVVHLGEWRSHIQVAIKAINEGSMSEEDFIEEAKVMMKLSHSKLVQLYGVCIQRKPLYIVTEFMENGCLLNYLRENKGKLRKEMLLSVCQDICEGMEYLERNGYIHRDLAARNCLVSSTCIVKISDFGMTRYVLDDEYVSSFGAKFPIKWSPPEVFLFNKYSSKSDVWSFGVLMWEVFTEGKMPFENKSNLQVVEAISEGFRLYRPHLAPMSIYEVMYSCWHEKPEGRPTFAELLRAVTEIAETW
Experimental: as §1

p38beta = biological target: T40, p38beta (Homo sapiens, UniProt Q15759)
T40 construct: purchased Millipore, Inc. (KinaseProfiler service)
T40 sequence (Q15759 whole entry): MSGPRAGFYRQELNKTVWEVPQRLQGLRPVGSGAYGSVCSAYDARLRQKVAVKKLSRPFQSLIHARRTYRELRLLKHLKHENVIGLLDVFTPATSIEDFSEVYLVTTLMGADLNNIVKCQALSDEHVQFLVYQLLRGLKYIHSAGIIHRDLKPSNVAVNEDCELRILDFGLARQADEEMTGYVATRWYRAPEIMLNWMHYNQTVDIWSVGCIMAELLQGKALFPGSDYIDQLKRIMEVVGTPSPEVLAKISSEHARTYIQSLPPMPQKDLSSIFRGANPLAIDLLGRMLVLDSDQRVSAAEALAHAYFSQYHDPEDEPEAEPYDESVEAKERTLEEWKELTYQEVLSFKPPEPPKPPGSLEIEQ
Experimental: as §1

p38gamma = biological target: T41, p38gamma (Homo sapiens, UniProt P53778)
T41 construct: purchased Millipore, Inc. (KinaseProfiler service)
Experimental: as §1

Avg POC (ALK4): 106.5 POC
Avg POC (Abl-P): 110.5 POC
Avg POC (CAMK4): 100 POC
Avg POC (CDK1/cyclinB): 108 POC
Avg POC (CHK2): 102.5 POC
Avg POC (CK1delta): 104 POC
Avg POC (CK1gamma2): 61.5 POC
Avg POC (DAPK1): 114 POC
Avg POC (DAPK2): 97 POC
Avg POC (DRAK1): 129.5 POC
Avg POC (EGFR): 95.5 POC
Avg POC (FGFR1): 117 POC
Avg POC (FGFR2): 99 POC
Avg POC (Fms): 103 POC
Avg POC (Fyn): 96.5 POC
Avg POC (GSK3alpha): 109.5 POC
Avg POC (HIPK3): 90 POC
Avg POC (IGF-1R): 80.5 POC
Avg POC (JNK2alpha2): 98.5 POC
Avg POC (KIT): 97.5 POC
Avg POC (LKB1): 104.5 POC
Avg POC (MAPKAP-K2): 115 POC
Avg POC (MARK2): 109.5 POC
Avg POC (MEK1): 103.5 POC
Avg POC (MKK4_m): 125 POC
Avg POC (MRCKbeta): 106.5 POC
Avg POC (MSK1): 129 POC
Avg POC (PAK5): 111 POC
Avg POC (PDGFRalpha): 96 POC
Avg POC (PDK1): 104 POC
Avg POC (PKCdelta): 102 POC
Avg POC (PKD2): 94.5 POC
Avg POC (PTK5): 105 POC
Avg POC (Plk3): 100.5 POC
Avg POC (Ron): 100 POC
Avg POC (SGK3): 112.5 POC
Avg POC (STK33): 101 POC
Avg POC (TAO1): 96 POC
Avg POC (Txk): 67 POC
Avg POC (p38beta): 102 POC
Avg POC (p38gamma): 114.5 POC
SMILES: COCCN1C[C@@H](NC(=O)Nc2c(C)c(-c3cnc(C)nc3)nn2-c2ccccc2)[C@H](c2cccc(F)c2)C1 [Compound 1, 1-((3S,4R)-4-(3-fluorophenyl)-1-(2-methoxyethyl)pyrrolidin-3-yl)-3-(4-methyl-3-(2-methylpyrimidin-5-yl)-1-phenyl-1H-pyrazol-5-yl)urea]
